Results as given in US20130259929A1, “USE OF A PHOSPHOPEPTIDE ABLE TO BLOCK HER3/P85 INTERACTION FOR THE TREATMENT OF HER2 HYPER-EXPRESSING TUMOURS” (priority 2010, published 2013).
Non-standard residues stand in square brackets, D forms with d. No end group written: not given here. pY = N[C@@H](Cc1ccc(OP(=O)(O)O)cc1)C(=O)O

Assays:
[1] = molecular target: p85 (Homo sapiens, UniProt P27986); details: binding to p85; cited from earlier work
[2] = system: PI3K activity measured as Akt phosphorylation; assay: Akt phosphorylation (Western blot) after peptide transfection; type: cell-based, human
Protocol: (§1) Peptide transfection. In order to inhibit the p85 and ErbB3 interaction, MCF7, BT474 and MDA-MB-453 cell lines have been transfected using 80, 100, and 180 μg, respectively, of the following phosphopeptides:
(§2) Treatments and lmmunodecorations. […] Briefly the cells have been plated at 5×10^5 concentration in 60 mm plates. […] At the end of the treatment the cells have been lysed with RIPA buffer [150 mM NaCl, 1% NP-40, 0,5% sodium deoxycholate (DOC), 0.1% SDS, 50 mM TrisHCl (pH 8), 1 mM PMSF, 1 mM EGTA, 50 mM NaF, 50 mM Na3VO4 and protease inhibitors (Roche, Milano, IT)] in order to analyze the expression levels of phosphorylated and total ErbB-3, ErbB-2, ERK and HSP-70 proteins. In order to analyze the levels of Akt phosphorylation and expression, the cells have been lysed in NP-40 buffer [1% NP-40, 10% glycerol, 137 mM NaCl, 20 mM TrisHCl (pH 7.4), 50 mM NaF, 1 mM PMSF, 5 mM Na3VO4, protease inhibitors (Roche, Milano, IT)]. Cell lysates have been incubated on ice for 20 minutes and centrifuged at 14000 rpm for 20 minutes. RIPA buffer obtained cell extracts have been boiled for 5 minutes at 95° C., while NP40 buffer lysed samples have been boiled at 65° C. for 5 minutes. Samples have been subjected to SDS-PAGE and transferred on nitrocellulose filters (Bio-Rad, Milan, IT). Then the filters have been incubated with interest antibodies, washed and incubated with specific secondary horse radish peroxidase (HRP) conjugated antibodies. After thorough washing, nitrocellulose peroxidase activity has been detected by chemiluminescence (Lite-blot-Euroclone, Milano, IT)

[3] = system: MAPK phosphorylation; assay: MAPK (ERK1/2) phosphorylation (Western blot) after peptide transfection; type: cell-based, human; details: MCF7, BT474 and MDA-MB-453 cells (FIG. 4A); Herceptin where combined
Protocol: as §1
as §2, with “Samples have been subjected to SDS-PAGE and transferred on nitrocellulose filters (Bio-Rad, Milan, IT). Then the filters have been incubated with interest antibodies, washed and incubated with specific secondary horse radish peroxidase (HRP) conjugated antibodies.” left out

[4] = molecular target: T1, HER3 binding to GST-N-SH2p85 fusion protein (Homo sapiens, UniProt P27986); assay: GST pull-down; details: lysates of BT474, MCF7 and MDA-MB-453 cells, in vitro (FIG. 2A, FIG. 3)
T1 construct: containing SH2 domains in N-terminal portion of p85 sub-unit
T1 sequence (P27986 333-428 limits assumed): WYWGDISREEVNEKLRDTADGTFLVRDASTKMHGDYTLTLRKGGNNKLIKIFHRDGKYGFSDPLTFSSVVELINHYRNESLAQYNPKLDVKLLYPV
Protocol: GST pull-down. MCF-7, BT474 and MDA-MB-453 cell lines have been washed 2 times with cold PBS and extracted with lysis buffer [(50 mM Tris HCl (pH 7.4), 250 mM NaCl, 0,1% Triton X-100, 5 mM EDTA, 50 mM NaF, 1 mM PMSF, 5 mM Na3VO4 and 50 mmol/L of protease inhibitors (Roche, Milano, IT)]. After 20 minute ice-cold incubation, the lysates have been clarified by centrifugation at 14000 rpm for 20 minutes. The cellular extracts (1 mg sample) have been incubated for 4 hours at 4° C. in the presence of GST bound gluthatione-agarose beads or GST-p85 fusion protein (kindly supplied by doctor S. Giordano), in the presence or absence of 1257 phosphopeptide or scr peptide used as control. Then the interaction complexes have been washed six times with lysis buffer and subsequently beads eluted using Laemli Buffer 2× [(140 mM SDS, 432 mM Glycerol, 1.6 mM Bromophenol blue, 120 mM Tris HCl (pH 6.8), 8% β-mercaptoethanol)]. The proteins have been separated using 8% SDS-PAGE and transferred on nitrocellulose filter. The filter has been then immunodecorated with anti ErbB3 antibody.
As in FIG. 2A is apparent that 1257 phosphopeptide effectively in vitro binds p85 sub-unit thus inhibiting HER3 receptor binding.

[5] = system: MCF7/Luc cells; assay: In vivo growth of peptide-transfected MCF7/Luc cells inoculated s.c.; set-up: species or system SCID mice; details: s.c. inoculation of transfected MCF7 cells
Protocol: Xeno-grafts. In vivo tests have been carried out using 40 day old SCID female mice (Harlan Laboratories, Milan, IT). At day 0, animals have been totally anesthetized with intramuscular injection of 400 μg/animal (average weight 25 g) of Zoletil (Virbac) containing 0.12% Xylor (Xylazine), and transplanted subcutaneously (s.c.), in intrascapular mouse region with pellet of […] (1.7 mg/sustained release pellet over 60 days, Innovative Research of America, Sarasota, Fla.). On the next day, 5×10^6 proliferating and scr and 1257 peptide previously transfected, as above described, MCF7 or BT474 cells, have been re-suspended in 0.1 ml of Matrigel (BD Biosciences) and subcutaneously inoculated in each mouse. […] Tumour growth has been monitored two times weekly using calibration along two orthogonal axes: length (L) and […]. The tumour volume (V) has been calculated using the formula V=L*(W2)/2. All the procedures relating to animals and treatment thereof have been carried out according institutional guidelines.
Generation of mammary tumour luminescent cells. Mammary tumour MCF7 cell lines stably transfected using pGL4.51 (luc2/CMV/Neo) expression vector, produced by Promega (Me, IT), have been transfected using scr or 1257 phosphopeptide ([…]×5×10^4 cells/mouse) and after 30 h subcutaneously inoculated in SCID mice (5×10^6 cells/mouse) in 200 μl (1:1 Matrigel: cell suspension in serum free medium). Mice have been in vivo imaged 20′ after inoculation and once weekly over 11 weeks. The animals have been anesthetized, as above reported, and subjected to intraperitoneal injection with 200 μl of luciferin (Caliper, Mi, IT); 10′ after incubation photon emission has been analyzed at 3′ minute exposure using Xenogen Ivis Lumina 2 machine. Growth of these cells has been monitored as reported in xenografts section.
Then it has been verified whether 1257 phosphopeptide was effective also in vivo. To this purpose immunocompromised SCID mice have been used. In the presence of oestrogen tablets, 5×10^6 control cells transfected with scr peptide or transfected with 1257 peptide have been injected subcutaneously between mouse scapulae. In order to verify the viability of phosphopeptide transfected cells in animals we have generated a stable luciferase gene expressing MCF7 cell line (MCF7/Luc).

Sequence of p85 (P27986 whole entry): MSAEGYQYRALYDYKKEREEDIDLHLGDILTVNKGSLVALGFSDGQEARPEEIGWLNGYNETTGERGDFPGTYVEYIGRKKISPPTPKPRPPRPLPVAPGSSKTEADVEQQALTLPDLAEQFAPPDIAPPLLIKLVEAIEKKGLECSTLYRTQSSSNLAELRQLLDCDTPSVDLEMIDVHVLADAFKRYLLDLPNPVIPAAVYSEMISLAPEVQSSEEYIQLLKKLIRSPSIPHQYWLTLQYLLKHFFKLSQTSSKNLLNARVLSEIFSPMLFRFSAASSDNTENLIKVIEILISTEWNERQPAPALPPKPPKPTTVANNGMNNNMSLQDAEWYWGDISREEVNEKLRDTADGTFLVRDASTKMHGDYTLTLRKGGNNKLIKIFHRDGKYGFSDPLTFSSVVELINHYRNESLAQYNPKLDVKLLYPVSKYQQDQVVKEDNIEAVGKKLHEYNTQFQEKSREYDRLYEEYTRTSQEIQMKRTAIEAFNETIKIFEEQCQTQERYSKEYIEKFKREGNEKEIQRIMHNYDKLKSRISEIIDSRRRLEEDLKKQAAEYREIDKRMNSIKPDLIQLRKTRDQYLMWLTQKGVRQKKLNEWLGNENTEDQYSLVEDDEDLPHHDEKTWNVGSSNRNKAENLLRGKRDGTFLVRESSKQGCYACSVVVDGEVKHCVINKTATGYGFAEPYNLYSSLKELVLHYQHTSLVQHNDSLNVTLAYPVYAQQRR

PTAGTTPDEDpYEYMNRQR (PTAGTTPDED[pY]EYMNRQR; listed as Homo sapiens) [1241 phosphopeptide, second HER3-derived phosphopeptide used for preliminary experiments, reference compound]
association constant (Ka) [1]: 824
inhibition of PI3K activity measured as inhibition level of Akt phosphorylation ([2]; MCF7 cells, peptide transfection at different doses (FIG. 12)): not suitable to remarkably inhibit PI3K activity

PYQMRpYNADTDGERTTEP (PYQMR[pY]NADTDGERTTEP) [scr phosphopeptide, scramble (scr), i.e. not specific, phosphopeptide used as control, reference compound]
MAPK phosphorylation [3]: does not result in any effect
inhibition of HER3 and p85 SH2 domain binding [4]: the binding is as efficient as in the absence of peptide
time after inoculation at which tumours were calibratable [5]: three
tumour take ([5]; SCID mice): 100%
phosphorylation of Akt ([2]; MCF7, BT474 and MDA-MB-453 cells (FIG. 4A), Herceptin where combined): does not result in any effect

not phosphorylated 1257 peptide: Not phosphorylated 1257 peptide used as further negative control (RDGGGPGGDYAAMGACPA; not fully specified) [reference compound]
inhibition of HER3 and p85 SH2 domain binding [4]: does not inhibit p85 and ErbB-3 binding
inhibition of Akt phosphorylation ([2]; MCF7 cells, 48 hr after Lipofectamine transfection (FIG. 3)): unable to inhibit Akt phosphorylation
